{"source": "paper PMC9920254", "about": "(Molecules, 2023)", "key": {"[1]": {"target": "T1, UGT1A1 (Rattus norvegicus, UniProt Q64550)", "T1 construct": "rat liver microsomes (RLMs) were prepared with 6 Sprague-Dawley males (6–8 weeks); from tissue; host or cells: liver microsomes of male Sprague-Dawley rats, prepared in house", "T1 sequence (Q64550 30-535)": "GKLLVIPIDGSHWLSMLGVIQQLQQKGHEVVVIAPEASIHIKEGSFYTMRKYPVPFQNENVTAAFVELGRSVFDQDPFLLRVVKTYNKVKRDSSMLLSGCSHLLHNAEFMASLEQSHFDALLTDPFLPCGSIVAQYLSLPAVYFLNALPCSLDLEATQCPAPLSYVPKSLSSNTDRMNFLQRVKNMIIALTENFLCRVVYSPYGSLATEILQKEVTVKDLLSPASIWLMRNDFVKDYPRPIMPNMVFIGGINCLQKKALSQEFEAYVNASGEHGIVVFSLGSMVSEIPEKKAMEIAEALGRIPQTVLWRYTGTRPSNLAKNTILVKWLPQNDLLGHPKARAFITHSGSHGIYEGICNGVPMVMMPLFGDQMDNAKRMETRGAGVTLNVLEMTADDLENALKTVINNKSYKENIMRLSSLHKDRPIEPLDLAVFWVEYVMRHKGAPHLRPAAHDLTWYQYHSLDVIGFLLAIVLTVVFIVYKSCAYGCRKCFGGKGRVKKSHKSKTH", "assay": "Chemical inhibition assay of PND metabolism in RLM, UGT1A1 inhibitor", "format": "in vitro ADME", "conditions": "liver microsomes, pH 7.4, probe PND (2 µM), overall metabolism of PND, bilirubin 100 μM"}, "[2]": {"tested_on": "CYP2E1", "assay": "Chemical inhibition assay of PND metabolism in LMs, CYP2E1 inhibitor", "format": "in vitro ADME, rat, mouse and human", "conditions": "disulfiram 50 μM (CYP2E1 inhibitor), PND 2 µM, LMs 0.5 mg protein/mL"}, "[3]": {"tested_on": "CYP3A4", "assay": "in vitro", "conditions": "male, Sprague-Dawley (rat), Kunming (mouse), human, liver microsomes, probe PND (2 µM)"}, "[4]": {"target": "T2, UGT1A9 (Homo sapiens, UniProt O60656)", "T2 construct": "Male Mongolia human microsomes (HLM), prepared from 30 male donors (19–78 years old); tissue RILD Liver Disease Research Co., Ltd. (Shanghai, China); host or cells: pooled human liver microsomes, 30 male donors", "T2 sequence (O60656 26-530)": "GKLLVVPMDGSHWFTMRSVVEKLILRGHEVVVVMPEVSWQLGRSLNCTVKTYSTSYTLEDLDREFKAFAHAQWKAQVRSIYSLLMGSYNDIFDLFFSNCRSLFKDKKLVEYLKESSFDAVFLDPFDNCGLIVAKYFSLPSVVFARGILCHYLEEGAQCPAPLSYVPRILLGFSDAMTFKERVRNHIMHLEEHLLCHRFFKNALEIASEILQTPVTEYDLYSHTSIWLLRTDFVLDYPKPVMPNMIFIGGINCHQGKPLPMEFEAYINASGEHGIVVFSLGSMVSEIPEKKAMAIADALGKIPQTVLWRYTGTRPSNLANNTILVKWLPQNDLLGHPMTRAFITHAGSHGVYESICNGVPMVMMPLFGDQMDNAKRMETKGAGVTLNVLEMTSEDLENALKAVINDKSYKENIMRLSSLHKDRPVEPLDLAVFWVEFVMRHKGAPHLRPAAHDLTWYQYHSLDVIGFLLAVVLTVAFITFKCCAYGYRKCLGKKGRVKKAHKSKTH", "assay": "Chemical inhibition assay of PND metabolism in HLM, UGT1A9 inhibitor", "format": "in vitro ADME", "conditions": "liver microsomes, probe PND (2 µM), overall metabolism of PND, niflumic acid 5 μM"}, "[5]": {"tested_on": "CYP2C9 (CYP2C6)", "assay": "in vitro", "conditions": "male, Sprague-Dawley (rat), Kunming (mouse), human, liver microsomes, probe PND (2 µM)"}, "[6]": {"target": "T3, UGT1A6 (Homo sapiens, UniProt P19224)", "T3 construct": "Male Mongolia human microsomes (HLM), prepared from 30 male donors (19–78 years old); tissue RILD Liver Disease Research Co., Ltd. (Shanghai, China); host or cells: pooled human liver microsomes, 30 male donors", "T3 sequence (P19224 27-532)": "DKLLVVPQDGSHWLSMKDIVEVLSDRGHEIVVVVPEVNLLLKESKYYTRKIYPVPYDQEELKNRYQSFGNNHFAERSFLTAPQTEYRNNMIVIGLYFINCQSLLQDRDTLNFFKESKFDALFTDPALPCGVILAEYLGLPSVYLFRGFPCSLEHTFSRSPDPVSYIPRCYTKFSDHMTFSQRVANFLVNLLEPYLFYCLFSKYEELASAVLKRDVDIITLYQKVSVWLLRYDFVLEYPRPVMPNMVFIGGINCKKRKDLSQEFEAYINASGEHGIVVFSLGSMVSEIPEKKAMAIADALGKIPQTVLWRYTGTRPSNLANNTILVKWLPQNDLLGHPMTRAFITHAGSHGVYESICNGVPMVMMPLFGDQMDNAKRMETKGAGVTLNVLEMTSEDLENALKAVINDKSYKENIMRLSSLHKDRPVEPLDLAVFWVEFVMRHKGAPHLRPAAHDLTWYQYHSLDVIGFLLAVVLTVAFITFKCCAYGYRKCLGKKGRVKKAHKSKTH", "assay": "Chemical inhibition assay of PND metabolism in human LMs, UGT1A6 inhibitor", "format": "in vitro ADME", "conditions": "liver microsomes, probe PND (2 µM), overall metabolism of PND, troglitazone 250 μM"}, "[7]": {"target": "T4, UGT1A6 (Rattus norvegicus, UniProt P08430)", "T4 construct": "rat liver microsomes (RLMs) were prepared with 6 Sprague-Dawley males (6–8 weeks); from tissue; host or cells: liver microsomes of male Sprague-Dawley rats, prepared in house", "T4 sequence (P08430 26-529)": "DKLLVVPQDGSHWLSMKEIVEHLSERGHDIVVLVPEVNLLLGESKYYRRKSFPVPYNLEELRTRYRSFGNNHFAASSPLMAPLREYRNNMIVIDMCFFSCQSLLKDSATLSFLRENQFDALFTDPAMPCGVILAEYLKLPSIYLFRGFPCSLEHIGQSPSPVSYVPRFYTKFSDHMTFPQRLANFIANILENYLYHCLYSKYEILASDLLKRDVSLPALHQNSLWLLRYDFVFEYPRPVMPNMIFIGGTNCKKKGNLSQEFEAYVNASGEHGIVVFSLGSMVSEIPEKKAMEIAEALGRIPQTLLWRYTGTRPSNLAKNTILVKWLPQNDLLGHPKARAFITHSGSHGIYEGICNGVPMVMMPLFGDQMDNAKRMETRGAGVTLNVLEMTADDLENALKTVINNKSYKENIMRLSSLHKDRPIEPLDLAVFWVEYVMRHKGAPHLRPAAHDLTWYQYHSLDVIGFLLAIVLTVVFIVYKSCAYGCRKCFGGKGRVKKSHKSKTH", "assay": "Chemical inhibition assay of PND metabolism in RLM, UGT1A6 inhibitor", "format": "in vitro ADME", "conditions": "liver microsomes, pH 7.4, probe PND (2 µM), overall metabolism of PND, troglitazone 250 μM"}, "[8]": {"target": "T5, UGT1A6 (Mus musculus, UniProt Q64435)", "T5 construct": "Mouse liver microsomes (MLM) were prepared with 10 Kunming males (6–8 weeks); from tissue; host or cells: liver microsomes of male Kunming mice, prepared in house", "T5 sequence (Q64435 27-531)": "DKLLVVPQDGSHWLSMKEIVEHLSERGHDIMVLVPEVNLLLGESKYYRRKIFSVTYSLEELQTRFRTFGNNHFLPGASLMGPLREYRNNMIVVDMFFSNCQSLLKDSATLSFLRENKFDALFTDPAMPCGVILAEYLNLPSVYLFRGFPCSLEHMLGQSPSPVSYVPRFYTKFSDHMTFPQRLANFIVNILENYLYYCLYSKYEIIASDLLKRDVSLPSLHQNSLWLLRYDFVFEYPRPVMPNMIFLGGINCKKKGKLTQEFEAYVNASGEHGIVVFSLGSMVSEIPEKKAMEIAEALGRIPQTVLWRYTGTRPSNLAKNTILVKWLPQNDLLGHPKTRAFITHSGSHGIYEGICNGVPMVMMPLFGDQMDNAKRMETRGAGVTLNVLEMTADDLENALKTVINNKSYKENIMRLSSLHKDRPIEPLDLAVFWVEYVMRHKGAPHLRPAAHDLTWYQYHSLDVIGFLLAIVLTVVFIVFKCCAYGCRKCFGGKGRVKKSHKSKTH", "assay": "Chemical inhibition assay of PND metabolism in MLM, UGT1A6 inhibitor", "format": "in vitro ADME", "conditions": "liver microsomes, pH 7.4, probe PND (2 µM), overall metabolism of PND, troglitazone 250 μM"}}, "data": [{"smiles": "C=CC1=C(C)/C(=C/c2[nH]c(Cc3[nH]c(/C=C4\\NC(=O)C(C)=C4C=C)c(C)c3CCC(=O)O)c(CCC(=O)O)c2C)NC1=O", "note": "[bilirubin]", "values": [{"measurement": "inhibition at 90 min, 100 μM", "setting": "[1]", "result": 64.3, "unit": "%"}]}, {"smiles": "CCN(CC)C(=S)SSC(=S)N(CC)CC", "note": "[disulfiram]", "values": [{"measurement": "Effect on metabolism of PND in LMs", "setting": "[2]", "result": "decreased significantly"}]}, {"smiles": "CC(=O)N1CCN(c2ccc(OCC3COC(Cn4ccnc4)(c4ccc(Cl)cc4Cl)O3)cc2)CC1", "note": "(centres unmarked) [ketoconazole]", "values": [{"measurement": "inhibition at 2 µM", "setting": "[3]", "result": "19 to 48", "unit": "%"}]}, {"smiles": "O=C(O)c1cccnc1Nc1cccc(C(F)(F)F)c1", "note": "[niflumic acid]", "values": [{"measurement": "inhibition at 90 min, 5 μM", "setting": "[4]", "result": 36.7, "unit": "%"}]}, {"smiles": "Nc1ccc(S(=O)(=O)Nc2ccnn2-c2ccccc2)cc1", "note": "[sulphafenazole]", "values": [{"measurement": "inhibition at 100 µM", "setting": "[5]", "result": "19 to 48", "unit": "%"}]}, {"smiles": "Cc1c(C)c2c(c(C)c1O)CCC(C)(COc1ccc(CC3SC(=O)NC3=O)cc1)O2", "note": "(centres unmarked) [troglitazone]", "values": [{"measurement": "inhibition at 90 min, 250 μM", "setting": "[6]", "result": 17.3, "unit": "%"}, {"measurement": "inhibition at 90 min, 250 μM", "setting": "[7]", "result": 68.6, "unit": "%"}, {"measurement": "inhibition at 90 min, 250 μM", "setting": "[8]", "result": 61.8, "unit": "%"}]}]}
